Data from ChEMBL document CHEMBL1687764, “Contribution of BlaA and BlaB beta-lactamases to antibiotic susceptibility of Yersinia enterocolitica biovar 1B” (2010).
Converted amounts (≈) assume the structure as drawn.

Legend:
Assay type in all cases: functional
[1] = system: Yersinia enterocolitica; assay: Antimicrobial activity against beta-lactamase A-deficient Yersinia enterocolitica GY5717 after 20 hrs by Etest; settings: GY5717, 20 h
[2] = system: Yersinia enterocolitica; assay: Antimicrobial activity against Yersinia enterocolitica Biovar 1B 8081 after 20 hrs by Etest; settings: Biovar 1B 8081, 20 h
[3] = system: Yersinia enterocolitica; assay: Antimicrobial activity against beta-lactamase A and B-deficient Yersinia enterocolitica GY5718 after 20 hrs by Etest; settings: GY5718, 20 h
[4] = system: Yersinia enterocolitica; assay: Antimicrobial activity against beta-lactamase B-deficient Yersinia enterocolitica GY5542 after 20 hrs by Etest; settings: GY5542, 20 h

Row | MIC [1] | MIC [2] | MIC [3] | MIC [4] | Compound
1 | 1.5 µg/mL (≈ 4.1 µM) | 24 µg/mL (≈ 65.7 µM) | 0.38 µg/mL (≈ 1.04 µM) | 24 µg/mL (≈ 65.7 µM) | CC1(C)S[C@@H]2[C@H](NC(=O)[C@H](N)c3ccc(O)cc3)C(=O)N2[C@H]1C(=O)O [AMOXICILLIN]
2 | 0.5 µg/mL (≈ 1.43 µM) | 4 µg/mL (≈ 11.4 µM) | 0.19 µg/mL (≈ 0.544 µM) | 4 µg/mL (≈ 11.4 µM) | CC1(C)S[C@@H]2[C@H](NC(=O)[C@H](N)c3ccccc3)C(=O)N2[C@H]1C(=O)O [AMPICILLIN]
3 | 0.023 µg/mL (≈ 0.0505 µM) | 0.023 µg/mL (≈ 0.0505 µM) | 0.012 µg/mL (≈ 0.0263 µM) | 0.016 µg/mL (≈ 0.0351 µM) | CO/N=C(\C(=O)N[C@@H]1C(=O)N2C(C(=O)O)=C(COC(C)=O)CS[C@H]12)c1csc(N)n1 [CEFOTAXIME]
4 | 0.016 µg/mL (≈ 0.0289 µM) | 0.023 µg/mL (≈ 0.0415 µM) | 0.012 µg/mL (≈ 0.0216 µM) | 0.016 µg/mL (≈ 0.0289 µM) | CO/N=C(\C(=O)N[C@@H]1C(=O)N2C(C(=O)O)=C(CSc3nc(=O)c(O)nn3C)CS[C@H]12)c1csc(N)n1 [CEFTRIAXONE]
5 | 0.5 µg/mL (≈ 1.18 µM) | 0.75 µg/mL (≈ 1.77 µM) | 0.5 µg/mL (≈ 1.18 µM) | 0.75 µg/mL (≈ 1.77 µM) | CO/N=C(\C(=O)N[C@@H]1C(=O)N2C(C(=O)O)=C(COC(N)=O)CS[C@H]12)c1ccco1 [CEFUROXIME]
6 | 0.25 µg/mL (≈ 0.835 µM) | 0.25 µg/mL (≈ 0.835 µM) | 0.25 µg/mL (≈ 0.835 µM) | 0.25 µg/mL (≈ 0.835 µM) | C[C@@H](O)[C@H]1C(=O)N2C(C(=O)O)=C(SCCNC=N)C[C@H]12 [IMIPENEM ANHYDROUS]
7 | 4 µg/mL (≈ 12 µM) | 24 µg/mL (≈ 71.8 µM) | 1 µg/mL (≈ 2.99 µM) | 24 µg/mL (≈ 71.8 µM) | CC1(C)S[C@@H]2[C@H](NC(=O)Cc3ccccc3)C(=O)N2[C@H]1C(=O)O [PENICILLIN G]
8 | 0.19 µg/mL (≈ 0.367 µM) | 0.75 µg/mL (≈ 1.45 µM) | 0.094 µg/mL (≈ 0.182 µM) | 0.75 µg/mL (≈ 1.45 µM) | CCN1CCN(C(=O)N[C@@H](C(=O)N[C@@H]2C(=O)N3[C@@H]2SC(C)(C)[C@@H]3C(=O)O)c2ccccc2)C(=O)C1=O [PIPERACILLIN]
